Test results taken from US20240368118A1, “CEREBLON BINDING COMPOUNDS, COMPOSITIONS THEREOF, AND METHODS OF TREATMENT THEREWITH” (CELGENE CORPORATION, priority 2021, published 2024).
Where a name gives a salt, the structure may show the parent alone.

Target: T1, AR (Homo sapiens, UniProt P10275)
T1 construct: endogenous in cells; host or cells: VCaP cells
T1 sequence (P10275 1-920): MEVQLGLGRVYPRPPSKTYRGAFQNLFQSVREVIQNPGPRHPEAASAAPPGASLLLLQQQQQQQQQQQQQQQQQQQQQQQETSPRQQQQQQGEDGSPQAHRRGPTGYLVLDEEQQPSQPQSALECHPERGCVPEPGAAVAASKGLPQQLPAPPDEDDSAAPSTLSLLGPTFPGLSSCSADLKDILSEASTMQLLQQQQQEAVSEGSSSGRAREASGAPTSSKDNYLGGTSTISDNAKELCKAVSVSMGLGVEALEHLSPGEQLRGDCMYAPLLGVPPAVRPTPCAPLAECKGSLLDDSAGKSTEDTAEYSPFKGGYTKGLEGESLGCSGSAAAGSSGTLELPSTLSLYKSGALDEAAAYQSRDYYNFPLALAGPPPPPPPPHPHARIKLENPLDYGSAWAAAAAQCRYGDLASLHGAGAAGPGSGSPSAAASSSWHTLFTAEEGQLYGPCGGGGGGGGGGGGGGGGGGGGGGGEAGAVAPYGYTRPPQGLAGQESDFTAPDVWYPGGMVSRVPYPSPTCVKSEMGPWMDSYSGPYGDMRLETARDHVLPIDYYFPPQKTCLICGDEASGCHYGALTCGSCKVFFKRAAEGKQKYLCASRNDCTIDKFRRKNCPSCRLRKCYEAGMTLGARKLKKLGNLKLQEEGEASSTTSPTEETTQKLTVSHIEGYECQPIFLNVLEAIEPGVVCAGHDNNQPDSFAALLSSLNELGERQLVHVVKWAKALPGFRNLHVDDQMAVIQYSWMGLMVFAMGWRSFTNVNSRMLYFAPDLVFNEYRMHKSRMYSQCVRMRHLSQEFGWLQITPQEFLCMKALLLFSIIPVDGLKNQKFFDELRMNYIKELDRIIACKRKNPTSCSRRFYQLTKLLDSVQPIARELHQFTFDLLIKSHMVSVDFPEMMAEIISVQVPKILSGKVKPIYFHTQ
Experiment: VCAP AR Degradation Assay
Format: cell-based
Settings: VCaP cells, 24 h; for DC50: AR ELISA, concentration when AR level = 50% of DMSO control; for Ymin: lowest AR level normalized to DMSO control, class symbols
Procedure: VCAP AR Degradation Assay. Test compounds were pre-dispensed into a Corning CellBind 96-well clear bottom plate (Cat #3300) using an acoustic dispenser to make a 10-point concentration series at 1:3 dilution for each compound. The final top concentration of each compound was 5 μM. DMSO at a final concentration of 0.1% was used as a control. VCaP cells cultured in DMEM with 8% fetal bovine serum (FBS) were seeded at 50K cells per well in a 200 μL volume into the compound plate and incubated at 37° C. in a C02 incubator for 24 h. The medium was carefully removed from the cells and the plate was placed on ice. One hundred μL of ice-cold 1× cell lysis buffer from Cell Signaling Technologies (Cat #9803) was added to each well of the cells and the plate was incubated at 4° C. on a shaker for 1 h. Fifteen μL of cell lysate was used for AR ELISA detection using a PathScan Total Sandwich AR ELISA kit (Cell Signaling Technology, Cat #12580). AR levels in compound-treated wells were normalized to that of DMSO control and expressed as percent of control (PoC) (y). A Four Parameter Logistic Model (Sigmoidal Dose-Response Model) was used to determine the compound's DC50, and EC50, using the following equation: […]
The lowest measured AR level normalized to DMSO control in response to compound treatment, termed Y value, was used to characterize the compound-mediated AR degradation efficiency.

SMILES | DC50 [nM] | Ymin
C[C@@H]1CN(CCC[C@H]2CC[C@H](N3C(=S)N(c4cnc(C#N)c(C(F)(F)F)c4)C(=O)C3(C)C)CC2)C[C@H](C)N1CC(=O)Nc1ccc(C2CCC(=O)NC2=O)cc1 (stereo partly drawn) [Cmpd 15, 2-((2R,6S)-4-(3-(trans-4-(3-(6-Cyano-5-(trifluoromethyl)pyridin-3-yl)-5,5-dimethyl-4-oxo-2-thioxoimidazolidin-1-yl)cyclohexyl)propyl)-2,6-dimethylpiperazin-1-yl)-N-(4-(2,6-dioxopiperidin-3-yl)phenyl)acetamide hydrochloride] | ≤ 5 | ** (20%<Y≤30%)
C[C@@H]1CN(CCC[C@H]2CC[C@H](N3C(=S)N(c4cnc(C#N)c(Cl)c4)C(=O)C3(C)C)CC2)C[C@H](C)N1CC(=O)Nc1ccc(C2CCC(=O)NC2=O)cc1 (stereo partly drawn) [Cmpd 16, 2-((2R,6S)-4-(3-(trans-4-(3-(5-Chloro-6-cyanopyridin-3-yl)-5,5-dimethyl-4-oxo-2-thioxoimidazolidin-1-yl)cyclohexyl)propyl)-2,6-dimethylpiperazin-1-yl)-N-(4-(2,6-dioxopiperidin-3-yl)phenyl)acetamide hydrochloride] | 5 to 15 | *** (30%<Y<80%)
C[C@@H]1CN(CCC[C@H]2CC[C@H](N3C(=S)N(c4ccc(C#N)c(Cl)c4)C(=O)C3(C)C)CC2)C[C@H](C)N1CC(=O)Nc1ccc(C2CCC(=O)NC2=O)cc1 (stereo partly drawn) [Cmpd 17, 2-((2S,6R)-4-(3-(trans-4-(3-(3-Chloro-4-cyanophenyl)-5,5-dimethyl-4-oxo-2-thioxoimidazolidin-1-yl)cyclohexyl)propyl)-2,6-dimethylpiperazin-1-yl)-N-(4-(2,6-dioxopiperidin-3-yl)phenyl)acetamide hydrochloride] | 5 to 15 | *** (30%<Y<80%)
C[C@@H]1CN(CCCO[C@H]2CC[C@H](N3C(=S)N(c4ccc(C#N)c(C(F)(F)F)c4)C(=O)C3(C)C)CC2)C[C@H](C)N1CC(=O)Nc1cccc(N2CCC(=O)NC2=O)c1 [Cmpd 19, 2-((2R,6S)-4-(3-((trans-4-(3-(4-Cyano-3-(trifluoromethyl)phenyl)-5,5-dimethyl-4-oxo-2-thioxoimidazolidin-1-yl)cyclohexyl)oxy)propyl)-2,6-dimethylpiperazin-1-yl)-N-(3-(2,4-dioxotetrahydropyrimidin-1(2H)-yl)phenyl)acetamide hydrochloride] | ≤ 5 | ** (20%<Y≤30%)
C[C@@H]1CN(CCCO[C@H]2CC[C@H](N3C(=S)N(c4ccc(C#N)c(C(F)(F)F)c4)C(=O)C3(C)C)CC2)C[C@H](C)N1CC(=O)Nc1cccc(C2CCC(=O)NC2=O)c1 (stereo partly drawn) [Cmpd 20, 2-((2R,6S)-4-(3-((trans-4-(3-(4-Cyano-3-(trifluoromethyl)phenyl)-5,5-dimethyl-4-oxo-2-thioxoimidazolidin-1-yl)cyclohexyl)oxy)propyl)-2,6-dimethylpiperazin-1-yl)-N-(3-(2,6-dioxopiperidin-3-yl)phenyl)acetamide hydrochloride] | ≤ 5 | ** (20%<Y≤30%)
C[C@@H]1C[C@@H](CCO[C@H]2CC[C@H](N3C(=S)N(c4ccc(C#N)c(C(F)(F)F)c4)C(=O)C3(C)C)CC2)C[C@H](C)N1CC(=O)Nc1ccc(C2CCC(=O)NC2=O)cc1 (stereo partly drawn) [Cmpd 21, 2-((2R,4s,6S)-4-(2-((trans-4-(3-(4-Cyano-3-(trifluoromethyl)phenyl)-5,5-dimethyl-4-oxo-2-thioxoimidazolidin-1-yl)cyclohexyl)oxy)ethyl)-2,6-dimethylpiperidin-1-yl)-N-(4-(2,6-dioxopiperidin-3-yl)phenyl)acetamide hydrochloride] | ≤ 5 | * (0<Y≤20%)
C[C@@H]1C[C@H](CCO[C@H]2CC[C@H](N3C(=S)N(c4ccc(C#N)c(C(F)(F)F)c4)C(=O)C3(C)C)CC2)C[C@H](C)N1CC(=O)Nc1ccc(C2CCC(=O)NC2=O)cc1 (stereo partly drawn) [Cmpd 22, 2-((2R,4r,6S)-4-(2-((trans-4-(3-(4-Cyano-3-(trifluoromethyl)phenyl)-5,5-dimethyl-4-oxo-2-thioxoimidazolidin-1-yl)cyclohexyl)oxy)ethyl)-2,6-dimethylpiperidin-1-yl)-N-(4-(2,6-dioxopiperidin-3-yl)phenyl)acetamide hydrochloride] | ≤ 5 | * (0<Y≤20%)
